{
  "source": "patent US5085991A",
  "about": "“Process of preparing purified aqueous indole solution” (Mitsui Toatsu Chemicals, Inc., priority 1987, dated 1992)",
  "key": {"tryptophan synthase": {"target": "tryptophan synthase (Escherichia coli, UniProt P0A879)", "sequence (P0A879 2-397)": "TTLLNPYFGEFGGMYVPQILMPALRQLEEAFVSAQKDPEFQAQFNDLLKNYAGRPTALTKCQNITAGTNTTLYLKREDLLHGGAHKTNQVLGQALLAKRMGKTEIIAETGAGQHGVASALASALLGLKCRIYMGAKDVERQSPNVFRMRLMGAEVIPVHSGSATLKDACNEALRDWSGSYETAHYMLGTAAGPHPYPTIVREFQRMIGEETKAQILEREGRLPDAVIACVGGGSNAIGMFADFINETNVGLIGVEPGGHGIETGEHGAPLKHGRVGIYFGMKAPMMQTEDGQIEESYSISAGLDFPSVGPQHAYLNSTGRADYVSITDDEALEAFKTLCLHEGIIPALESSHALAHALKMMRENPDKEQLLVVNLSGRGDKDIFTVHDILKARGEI", "sequence (P0A877 whole entry, further chain)": "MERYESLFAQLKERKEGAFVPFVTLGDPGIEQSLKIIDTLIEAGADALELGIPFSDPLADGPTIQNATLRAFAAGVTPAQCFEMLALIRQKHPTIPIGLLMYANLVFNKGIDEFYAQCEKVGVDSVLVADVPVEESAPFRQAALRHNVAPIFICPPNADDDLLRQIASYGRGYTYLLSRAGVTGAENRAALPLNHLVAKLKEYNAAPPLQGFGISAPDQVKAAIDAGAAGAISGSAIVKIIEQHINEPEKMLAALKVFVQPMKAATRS", "assay": "Activity of immobilized tryptophan synthase source after standing in aqueous solutions of organic impurities", "assay_type": "biochemical, Escherichia coli MT-10232 (FERM BP-19)", "settings": "for activity at 200 µg/mL: impurity 200 ppm, ratio to enzyme left in reference solution without organic substance; for activity at 200 µg/mL / activity at 1000 µg/mL / activity at 20 µg/mL / activity at 50 µg/mL / activity at 500 µg/mL: 30° C., pH 8.5; for activity at 1000 µg/mL: impurity 1000 ppm; for activity at 1000 µg/mL / activity at 20 µg/mL / activity at 50 µg/mL / activity at 500 µg/mL: ratio to enzyme left in reference solution; for level at which the impurity inhibits tryptophan synthase: enzyme synthesizing tryptophan from indole and L-serine; for activity at 20 µg/mL: impurity 20 ppm; for activity at 50 µg/mL: impurity 50 ppm; for activity at 500 µg/mL: impurity 500 ppm", "experimental": "Escherichia coli MT-10232 (FERM BP-19), which is a tryptophan synthase-producing bacterium, was inoculated to 100 ml of the culture medium having the composition shown in Table 2 in a 500 ml flask, and was incubated at 35° C. for 24 hours. Two hundred milliliters (in two flasks) of the culture medium was inoculated to 15 1 of the culture medium having the composition shown in Table 3 in 30 1 of jar fermenter and was incubated at 35° C., pH 6.8 (adjusted with 28% aqueous ammonia) for 30 hours.\nAfter the culture, the culture medium was centrifuged to collect 600 g wet weight of the bacterial cells. The cells were placed in a sealed container and restored in a refrigerator at 4° C., and were used for preparing the immobilized enzyme source.\nOne part of the above-described wet bacterial cells and one part of isotonic sodium chloride solution were mixed with stirring. On the other hand, 7.76 parts of distilled water and 0.24 parts of sodium alginate (NSPLL manufactured by Kibun Food Chemifa, Co., Ltd.) were mixed with stirring and pH thereof was adjusted to 8.5 with sodium hydroxide.\nTwo parts of the suspension of the cells and 8 parts of the sodium alginate solution were mixed with stirring and the resulting mixture was fed into a syringe and was dropped into a gelling solution from the tip of a needle with an inner diameter of 0.5 mm to 0.8 mm.\nThe particles formed by dropping the mixture into the gelling solution was matured under stirring in the gelling solution to obtain immobilized enzyme source.\nTo each of the aqueous solutions with a volume of 100 ml containing aniline, N-ethylaniline, o-ethylaniline, o-toluidine, 3-methylindole or 2-ethylindole in the amount shown in Table 4, […] of calcium chloride dihydrate and 1 mg of pyridoxal-5'-phosphate were added, and the pH thereof was adjusted to 8.5 with aqueous ammonia.\nFurther, as a reference solution, 100 ml of distilled water containing no organic substance was subjected to the same procedure as described above and the immobilized enzyme source was added thereto as mentioned above, followed by being left to stand at 30° C.\nTwenty four hours later and 96 hours later, 1 g of immobilized enzyme source was removed from each of the solutions and the enzyme activity was determined. The ratio of the activity of the enzyme left in the solution of the organic substance to the activity of the enzyme left in the reference solution was determined and is shown in Table 4.\nThe enzyme activity was determined as follows:\nTen milliliters of reaction medium containing indole, L-serine, pyridoxal-5'-phosphate (PLP) and 0.3 g of the immobilized enzyme source was prepared and the reaction was conducted at 35° C. in a shaking incubator for 1 hour with shaking. The produced L-tryptophan was analyzed with high performance liquid chromatography."}, "[1]": {"settings": "room temperature; cited from earlier work"}, "[2]": {"settings": "24 h, read-out: Activity Ratio 24 Hours Later"}, "[3]": {"settings": "96 h, read-out: Activity Ratio 96 Hours Later"}},
  "note": "Where two headings read alike, the source gives them in different places.",
  "data": [
    {"molecule": "CCNc1ccccc1", "note": "[N-ethylaniline]", "values": [
      {"measurement": "activity at 200 µg/mL", "setting": "tryptophan synthase; [2]", "result": 104, "unit": "%"},
      {"measurement": "activity at 1000 µg/mL", "setting": "tryptophan synthase; [2]", "result": 100, "unit": "%"},
      {"measurement": "activity at 200 µg/mL", "setting": "tryptophan synthase; [3]", "result": 97, "unit": "%"},
      {"measurement": "activity at 1000 µg/mL", "setting": "tryptophan synthase; [3]", "result": 89, "unit": "%"}
    ]},
    {"molecule": "CCc1ccccc1N", "note": "[o-ethylaniline]", "values": [
      {"measurement": "activity at 200 µg/mL", "setting": "tryptophan synthase; [2]", "result": 90, "unit": "%"},
      {"measurement": "activity at 1000 µg/mL", "setting": "tryptophan synthase; [2]", "result": 71, "unit": "%"},
      {"measurement": "activity at 200 µg/mL", "setting": "tryptophan synthase; [3]", "result": 77, "unit": "%"},
      {"measurement": "activity at 1000 µg/mL", "setting": "tryptophan synthase; [3]", "result": 50, "unit": "%"},
      {"measurement": "level at which the impurity inhibits tryptophan synthase", "setting": "tryptophan synthase", "result": "about 200 ppm"}
    ]},
    {"molecule": "Cc1ccccc1N", "note": "[o-toluidine]", "values": [
      {"measurement": "activity at 200 µg/mL", "setting": "tryptophan synthase; [2]", "result": 97, "unit": "%"},
      {"measurement": "activity at 1000 µg/mL", "setting": "tryptophan synthase; [2]", "result": 88, "unit": "%"},
      {"measurement": "activity at 200 µg/mL", "setting": "tryptophan synthase; [3]", "result": 106, "unit": "%"},
      {"measurement": "activity at 1000 µg/mL", "setting": "tryptophan synthase; [3]", "result": 80, "unit": "%"}
    ]},
    {"molecule": "CCc1cc2ccccc2[nH]1", "note": "[2-ethylindole]", "values": [
      {"measurement": "activity at 20 µg/mL", "setting": "tryptophan synthase; [2]", "result": 93, "unit": "%"},
      {"measurement": "activity at 50 µg/mL", "setting": "tryptophan synthase; [2]", "result": 73, "unit": "%"},
      {"measurement": "activity at 200 µg/mL", "setting": "tryptophan synthase; [2]", "result": 68, "unit": "%"},
      {"measurement": "activity at 20 µg/mL", "setting": "tryptophan synthase; [3]", "result": 71, "unit": "%"},
      {"measurement": "activity at 50 µg/mL", "setting": "tryptophan synthase; [3]", "result": 54, "unit": "%"},
      {"measurement": "activity at 200 µg/mL", "setting": "tryptophan synthase; [3]", "result": 48, "unit": "%"},
      {"measurement": "level at which the impurity inhibits tryptophan synthase", "setting": "tryptophan synthase", "result": "about 20 ppm"}
    ]},
    {"molecule": "Cc1c[nH]c2ccccc12", "note": "[3-methylindole]", "values": [
      {"measurement": "activity at 200 µg/mL", "setting": "tryptophan synthase; [2]", "result": 94, "unit": "%"},
      {"measurement": "activity at 500 µg/mL", "setting": "tryptophan synthase; [2]", "result": 94, "unit": "%"},
      {"measurement": "activity at 200 µg/mL", "setting": "tryptophan synthase; [3]", "result": 89, "unit": "%"},
      {"measurement": "activity at 500 µg/mL", "setting": "tryptophan synthase; [3]", "result": 84, "unit": "%"},
      {"measurement": "level at which the impurity inhibits tryptophan synthase", "setting": "tryptophan synthase", "result": "about 200 ppm"}
    ]},
    {"molecule": "Nc1ccccc1", "note": "[Aniline]", "values": [
      {"measurement": "activity at 200 µg/mL", "setting": "tryptophan synthase; [2]", "result": 98, "unit": "%"},
      {"measurement": "activity at 1000 µg/mL", "setting": "tryptophan synthase; [2]", "result": 100, "unit": "%"},
      {"measurement": "activity at 200 µg/mL", "setting": "tryptophan synthase; [3]", "result": 101, "unit": "%"},
      {"measurement": "activity at 1000 µg/mL", "setting": "tryptophan synthase; [3]", "result": 82, "unit": "%"}
    ]},
    {"molecule": "c1ccc2[nH]ccc2c1", "note": "[indole]", "values": [
      {"measurement": "solubility in water", "setting": "[1]", "result": "3000 to 4000", "unit": "µg/mL"}
    ]}
  ]
}
